Measurements reported in publication PMC2720045 (Proteins, 2009).
“Also recorded” adds a separate entry of the source. Like-named read-outs stand apart in the source and are kept apart here.

Assays:
[1] = biological target: T1, PRD25N (HIV-1 protease D25N mutant) (Human immunodeficiency virus type 1, UniProt P03367, D525N, form not given); assay: DSC thermal denaturation of PRD25N with inhibitors; type: binding; details: inhibitor 28 μM, pH 4.8-5.0; unliganded PRD25N 58.4
porcine pepsin [2] = biological target: T2, porcine pepsin (Sus scrofa, UniProt P00791); assay: Kinetic inhibition of pepsin; type: biochemical; details: for inhibition at 16 µM: pH 3, read-out: Inhibition of pepsin under the screening conditions; for Inhibition of pepsin under the screening conditions: 175 μM substrate, pH 3.0-3.2, 28 °C
porcine pepsin [3] = biological target: T2, porcine pepsin; assay: ITC titration of pepsin with inhibitors; type: binding; details: for binding constant (KL) from curve fitting of ITC data, pepsin / stoichiometry of binding to pepsin: 28 °C; for binding constant (KL) from curve fitting of ITC data, pepsin: 50 mM sodium formate pH 3; for stoichiometry of binding to pepsin: pH 3
porcine pepsin [4] = biological target: T2, porcine pepsin; assay: DSC of pepsin with inhibitors; type: binding; details: DSC pH 3; […] (APV) or 2-fold (Ac-PEP) molar excess; unliganded pepsin Tm 74.2
[5] = biological target: PRD29N (HIV-1 protease D29N mutant) (Human immunodeficiency virus type 1, UniProt P03367, D529N, form not given); details: inhibitor 28 μM, pH 4.8-5.0; unliganded PRD29N 59.0
[6] = biological target: T3, mature HIV-1 protease (PR) (Human immunodeficiency virus type 1, UniProt P03367); details: cited from earlier work; for Binding constant (Ka), PR / ΔH of binding, PR / −TΔS of binding, PR: ITC, pH 5; for Kd: read-out: KL at 25 °C PR (lit.), 25 °C
P. falciparum = details: cited from earlier work
[7] = test system: PRD25N (HIV-1 protease D25N mutant); assay: DSC thermal denaturation of PRD25N with inhibitors; type: binding; details: DSC
[8] = biological target: T3, mature HIV-1 protease (PR); details: cited from earlier work
[9] = biological target: T1, PRD25N (HIV-1 protease D25N mutant); details: cited from earlier work
[10] = Tm with inhibitor minus Tm without, twofold molar excess

T2 sequence (P00791 60-385): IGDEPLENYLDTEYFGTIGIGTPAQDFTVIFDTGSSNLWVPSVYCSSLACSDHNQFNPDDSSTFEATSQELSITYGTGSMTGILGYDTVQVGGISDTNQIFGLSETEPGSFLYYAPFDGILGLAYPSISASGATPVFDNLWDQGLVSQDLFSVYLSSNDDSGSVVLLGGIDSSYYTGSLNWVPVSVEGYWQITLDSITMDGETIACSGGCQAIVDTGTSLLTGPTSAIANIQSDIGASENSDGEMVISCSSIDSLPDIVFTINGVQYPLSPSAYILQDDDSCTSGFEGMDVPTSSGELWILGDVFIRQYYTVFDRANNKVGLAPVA

Compound: CC(C)CN(C[C@@H](O)[C@H](Cc1ccccc1)NC(=O)O[C@H]1CCOC1)S(=O)(=O)c1ccc(N)cc1 [APV, Amprenavir]
- Tm PRD25N [1]: 58.7 °C
- Ki (porcine pepsin [2]): 300 nM
- inhibition at 16 µM (porcine pepsin [2]): 75 to 95%
- Kd (porcine pepsin [3]): 180 nM
- binding constant (KL) from curve fitting of ITC data, pepsin (porcine pepsin [3]): (5.5 ± 0.5) × 10^6 M
- stoichiometry of binding to pepsin (porcine pepsin [3]; ITC): 0.97 ± 0.004
- Binding constant (Ka), pepsin (porcine pepsin [3]; ITC, pH 3, 28 °C): (5.45 ± 0.5) × 10^6 M^−1
- ΔH of binding, pepsin (porcine pepsin [3]; ITC, pH 3, 28 °C): -4.2 ± 0.3 kcal/mol
- −TΔS of binding, pepsin (porcine pepsin [3]; ITC, pH 3, 28 °C): -5.1 kcal/mol
- ΔTm pepsin (porcine pepsin [4]): 2.7 °C
- Tm PRD29N [5]: 67.5 °C
- Binding constant (Ka), PR [6]: (5.0 ± 0.3) × 10^9 M^−1
- ΔH of binding, PR [6]: -6.9 kcal/mol
- −TΔS of binding, PR [6]: -6.3 kcal/mol
- growth of P. falciparum (P. falciparum): did not inhibit

Compound: COC(=O)N[C@H](C(=O)N[C@@H](Cc1ccccc1)[C@@H](O)CN(Cc1ccc(-c2ccccn2)cc1)NC(=O)[C@@H](NC(=O)OC)C(C)(C)C)C(C)(C)C [ATV, Atazanavir]
- Tm PRD25N [1]: 61.4 °C
- Inhibition of pepsin under the screening conditions (porcine pepsin [2]; 16 μM inhibitor): undetected; also recorded: no detectable inhibition; also recorded: did not inhibit
- Tm PRD29N [5]: 71.7 °C
- Kd [6]: 0.035 nM

Compound: O=C1N(Cc2ccc(CO)cc2)[C@H](Cc2ccccc2)[C@H](O)[C@@H](O)[C@@H](Cc2ccccc2)N1Cc1ccc(CO)cc1 [DMP323]
- Tm PRD25N [1]: 67.3 °C
- ΔTm ratio ΔTm(PR)/ΔTm(PRD25N) [7]: 1-2
- Inhibition of pepsin under the screening conditions (porcine pepsin [2]; 24 μM inhibitor): undetected
- Tm PRD29N [5]: 69.2 °C
- Kd [6]: 3.8 nM

Compound: CC(C)CN(C[C@@H](O)[C@H](Cc1ccccc1)NC(=O)O[C@H]1CO[C@H]2OCC[C@H]21)S(=O)(=O)c1ccc(N)cc1 [DRV, Darunavir]
- Ki (porcine pepsin [2]): 2140 nM
- Kd (porcine pepsin [3]): 1540 nM
- difference in ΔG for binding to the two enzymes (PR and pepsin) (porcine pepsin [3]): 7200 kcal/mol
- binding constant (KL) from curve fitting of ITC data, pepsin (porcine pepsin [3]): (6.5 ± 0.6) × 10^5 M
- stoichiometry of binding to pepsin (porcine pepsin [3]; ITC): 0.90 ± 0.01
- −TΔS of binding, pepsin (porcine pepsin [3]; ITC, pH 3, 28 °C): -2.0 kcal/mol
- Tm PRD29N [5]: 72.7 °C
- −TΔS of binding, PR [6]: -3.1 kcal/mol
- ΔTm PR [8, 10]: 22.4 °C
- Tm PR ([8]; twofold molar excess of inhibitor, unliganded PR 65.7): 88.1 °C
- ΔTm PRD25N [9, 10]: 3.1 °C
- Tm PRD25N ([9]; twofold molar excess of inhibitor, unliganded PRD25N 58.4): 61.5 °C

Compound: CC(C)(C)NC(=O)[C@@H]1CN(Cc2cccnc2)CCN1C[C@@H](O)C[C@@H](Cc1ccccc1)C(=O)N[C@H]1c2ccccc2C[C@H]1O [INV, Indinavir]
- Inhibition of pepsin under the screening conditions (porcine pepsin [2]; 16 μM inhibitor): undetected; also recorded: did not inhibit

Compound: Cc1cccc(C)c1OCC(=O)N[C@@H](Cc1ccccc1)[C@@H](O)C[C@H](Cc1ccccc1)NC(=O)[C@H](C(C)C)N1CCCNC1=O [LPV, Lopinavir]
- inhibition at 16 µM (porcine pepsin [2]): ≤ 50%

Compound: Cc1c(O)cccc1C(=O)N[C@@H](CSc1ccccc1)[C@H](O)CN1C[C@H]2CCCC[C@H]2C[C@H]1C(=O)NC(C)(C)C [NFV, Nelfinavir]
- inhibition at 16 µM (porcine pepsin [2]): ≤ 50%

Compound: CC(C)c1nc(CN(C)C(=O)N[C@H](C(=O)N[C@@H](Cc2ccccc2)C[C@H](O)[C@H](Cc2ccccc2)NC(=O)OCc2cncs2)C(C)C)cs1 [RTV, Ritonavir]
- Tm PRD25N [1]: 61.1 °C
- inhibition at 16 µM (porcine pepsin [2]): 75 to 95%
- Tm PRD29N [5]: 66.1 °C
- Binding constant (Ka), PR [6]: (1.0 ± 0.1) × 10^10 M^−1
- ΔH of binding, PR [6]: -4.3 kcal/mol
- −TΔS of binding, PR [6]: -9.4 kcal/mol

Compound: CC(C)(C)NC(=O)[C@@H]1C[C@@H]2CCCC[C@@H]2CN1C[C@@H](O)[C@H](Cc1ccccc1)NC(=O)[C@H](CC(N)=O)NC(=O)c1ccc2ccccc2n1 [SQV, Saquinavir]
- Tm PRD25N [1]: 62.6 °C
- inhibition at 16 µM (porcine pepsin [2]): ≤ 50%
- Tm PRD29N [5]: 72.3 °C

Compound: CCC[C@@]1(CCc2ccccc2)CC(O)=C([C@H](CC)c2cccc(NS(=O)(=O)c3ccc(C(F)(F)F)cn3)c2)C(=O)O1 [TPV, Tipranavir]
- inhibition at 16 µM (porcine pepsin [2]): ≤ 50%

Compound: acetyl pepstatin [Ac-PEP]
- Tm PRD25N [1]: 58.8 °C
- Tm PRD29N [5]: 58.3 °C
- Kd [6]: 440 nM
